Measured values: US20060252930A1 (priority 2003, published 2006)
Several values for one entry are separate records, joined by “and”; a condition that tells them apart may be missing. Equal entries are not always repeated. Where two headings read alike, the source gives them in different places.

Legend:
[1] = tested on: Candida albicans ATCC 64548; experiment: Enhancing activity of azole antifungal agent, yeast susceptibility test NCCLS M27-A; assay type: cell-based; conditions: for enhancing action of the activity of azole antifungal agent (in words): C. albicans ATCC64548, summary statement; for Ratio (enhancing activity): IC50 without addition set as 1.0
Description: (§1) Candida albicans ATCC 64548, fluconazole resistant Candida albicans ATCC 64550 and Aspergillus niger ATCC 6275 were used as test organisms.
(§2) Enhancing activity of azole antifungal agent on Candida albicans ATCC 64548 and ATCC 64550 was determined by yeast susceptibility test method, National Committee for Clinical Standard (NCCLS) Standard Method M27-A. Each suspension of inoculating strain was spread over YM agar medium (0.5% yeast extract, 0.5% malt extract, 0.5% peptone, 1% glucose and 1.5% agar) and cultured at 35° C. for 36 hours. Five grown colonies with a diameter 1 mm or more were collected and the colonies were suspended in physiological saline 5 ml. The suspension was further diluted with physiological saline to prepare the test microorganism suspension having McFarland transmittance 0.5. RPMI 1640 medium 70 μl was added into 96 well plastic plate (Corning Inc., U.S.). […] Finally, the test microorganism suspension 100 μl was added and incubated at 35° C. for 24 hours. […] When IC50 value without addition of FKI-1366 substance A, FKI-1366 substance B or FKI-1366 substance C was set as 1.0, a ratio of IC50 with addition of FKI-1366 substance A, FKI-1366 substance B or FKI-1366 substance C was determined as the enhancing activity.

[2] = tested on: fluconazole resistant Candida albicans ATCC 64550; assay type: cell-based; conditions: for Ratio (enhancing activity): IC50 without addition set as 1.0; for enhancing action of the activity of azole antifungal agent (in words): fluconazole resistant C. albicans ATCC64550, summary statement
Description: as §1, §2

[3] = Solubility in solvents; assay type: physicochemical
[4] = tested on: Aspergillus niger ATCC 6275; experiment: Enhancing activity of azole antifungal agent, susceptibility test for conidiogenous fungi NCCLS M38-P (Alamar Blue); assay type: cell-based; conditions: for enhancing action of the activity of azole antifungal agent (in words): Aspergillus niger ATCC 6275, summary statement
Description: as §1
Enhancing activity of azole antifungal agent on Aspergillus niger ATCC 6275 was determined by the drug susceptibility test method for conidiogenous fungi proposed by NCCLS (M38-P). Spores of the strain of Aspergillus niger ATCC 6275 were suspended in the physiological saline to maintain a value at OD 530 nm being 0.09-0.11. The suspension was further diluted 100 times with PRMI1640 medium to prepare inoculating microorganism solution. […] Further, FKI-1366 substance A, FKI-1366 substance B or FKI-1366 substance C, 10 μl, each of which was prepared for maintaining the final concentration of 2.5, 5.0 and 10 μg/ml, was added. Finally, the test microorganism suspension 80 μl was added. Alamar Blue solution (Asahi Glass Co., Japan) 20 μl, a coloring reagent, was added thereto and incubated at 35° C. for 24 hours. […] When IC50 value without addition of FKI-1366 substance A, FKI-1366 substance B or FKI-1366 substance C was set as 1.0, a ratio of IC50 with addition of FKI-1366 substance A, FKI-1366 substance B or FKI-1366 substance C was determined as the enhancing activity.

[5] = Table 1, miconazole + FKI-1366 substance 0.5 μg/ml
[6] = Table 1, miconazole + FKI-1366 substance 1.0 μg/ml
[7] = Table 1, miconazole + FKI-1366 substance 2.0 μg/ml
[8] = Table 2 (fluconazole) + FKI-1366 substance 0.5 μg/ml
[9] = Table 2 (fluconazole) + FKI-1366 substance 1.0 μg/ml
[10] = Table 2 (fluconazole) + FKI-1366 substance 2.0 μg/ml
[11] = DMSO, methanol, chloroform and ethyl acetate
[12] = Table 1, miconazole + FKI-1366 substance 2.5 μg/ml, IC50 without addition set as 1.0
[13] = Table 1, miconazole + FKI-1366 substance 5.0 μg/ml, IC50 without addition set as 1.0
[14] = Table 1, miconazole + FKI-1366 substance 10 μg/ml, IC50 without addition set as 1.0
[15] = Table 2 (fluconazole) + FKI-1366 substance 2.5 μg/ml, IC50 without addition set as 1.0
[16] = Table 2 (fluconazole) + FKI-1366 substance 5.0 μg/ml, IC50 without addition set as 1.0
[17] = Table 2 (fluconazole) + FKI-1366 substance 10 μg/ml, IC50 without addition set as 1.0

| SMILES | enhancing action of the activity of azole antifungal agent (in words) [1] | Ratio (enhancing activity) [1, 5] | Ratio (enhancing activity) [1, 6] | Ratio (enhancing activity) [1, 7] | Ratio (enhancing activity) [1, 8] | Ratio (enhancing activity) [1, 9] | Ratio (enhancing activity) [1, 10] | Ratio (enhancing activity) [2, 5] | Ratio (enhancing activity) [2, 6] | Ratio (enhancing activity) [2, 7] | Ratio (enhancing activity) [2, 8] | Ratio (enhancing activity) [2, 9] | Ratio (enhancing activity) [2, 10] | enhancing action of the activity of azole antifungal agent (in words) [2] | Solubility in solvents [3, 11] | Solubility in solvents ([3]; water and n-hexane) | enhancing action of the activity of azole antifungal agent (in words) [4] | Ratio (enhancing activity) [4, 12] | Ratio (enhancing activity) [4, 13] | Ratio (enhancing activity) [4, 14] | also measured |
| --- | --- | --- | --- | --- | --- | --- | --- | --- | --- | --- | --- | --- | --- | --- | --- | --- | --- | --- | --- | --- | --- |
| CC(C)C1OC(=O)C(Cc2ccccc2)N(C)C(=O)C(C(C)C)OC(=O)C(Cc2ccccc2)N(C)C(=O)C(C(C)C)OC(=O)C(Cc2ccccc2)NC1=O (stereo not shown) [FKI-1366 substance A] | enhancing action | 1.0 | 1.4 | >55 | 1.0 | 1.4 | >55 | 1.2 | 5.0 | >60 | 1.2 | 5.0 | >60 | enhancing action | Soluble | Slightly soluble | enhancing action | 5.5 | 9.6 | 10.9 | Ratio (enhancing activity) [4, 15]: 5.5; Ratio (enhancing activity) [4, 16]: 9.6; Ratio (enhancing activity) [4, 17]: 10.9 |
| CC(C)CC1OC(=O)C(Cc2ccccc2)N(C)C(=O)C(C(C)C)OC(=O)C(Cc2ccccc2)N(C)C(=O)C(C(C)C)OC(=O)C(Cc2ccccc2)N(C)C1=O (stereo not shown) [FKI-1366 substance C] | enhancing action | 1.0 | 2.5 | >55 | 1.0 | 2.5 | >55 | 1.0 | 1.1 | 3.9 | 1.0 | 1.1 | 3.9 | enhancing action | Soluble | Slightly soluble | enhancing action | 5.2 | 8.0 | 11.0 | Ratio (enhancing activity) [4, 15]: 5.2; Ratio (enhancing activity) [4, 16]: 8.0; Ratio (enhancing activity) [4, 17]: 11.0 |
| CC(C)CC1NC(=O)C(C(C)C)OC(=O)C(Cc2ccccc2)N(C)C(=O)C(C(C)C)OC(=O)C(Cc2ccccc2)N(C)C(=O)C(C(C)C)OC1=O (stereo not shown) [FKI-1366 substance B] | enhancing action | 1.7 | 6.0 | >55 |  |  |  | 1.4 | 4.2 | >60 | 1.4 | 4.2 | >60 | enhancing action | Soluble | Slightly soluble | enhancing action | 1.8 | 2.4 | 3.5 | Ratio (enhancing activity) [4]: 1.8 and 2.4 and 3.5 |
